For this assay, the target named is T1, CCR1 (Homo sapiens, UniProt P32246).
T1 sequence (P32246 1-355): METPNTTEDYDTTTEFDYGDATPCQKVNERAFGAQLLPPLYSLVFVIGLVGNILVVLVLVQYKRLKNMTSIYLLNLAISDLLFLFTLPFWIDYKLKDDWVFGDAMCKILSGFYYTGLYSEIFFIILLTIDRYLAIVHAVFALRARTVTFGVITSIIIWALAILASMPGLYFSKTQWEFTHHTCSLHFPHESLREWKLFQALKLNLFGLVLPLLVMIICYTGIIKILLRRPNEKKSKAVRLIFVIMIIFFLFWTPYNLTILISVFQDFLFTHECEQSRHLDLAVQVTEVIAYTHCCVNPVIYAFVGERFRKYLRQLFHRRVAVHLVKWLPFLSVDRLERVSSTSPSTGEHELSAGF
Put plainly: Method A: calcium flux in CCR1 transfected cells (Fluo-4 NW, FLIPR TETRA), block of the CCR1/MIP-1α interaction. The format is cell-based. As to conditions: Method A: Fluo-4 NW, MIP-1 alpha at EC80. In outline:
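Non-adherent cells stably expressing recombinant CCR1 and G-alpha-16, Fluo-4 NW-loaded 1 h at room temperature, preincubated 1 h with compound (top 3,000 nM, 4-fold, 10 doses; 1% DMSO) in HBSS/20 mM HEPES pH 7.4. MIP-1 alpha added at EC80; intracellular calcium flux recorded on FLIPR TETRA.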

In general, IC50 refers to the concentration that inhibits the measured activity by half.

Consider `CCCC(NC(=O)c1cncc2c1cnn2-c1ccc(F)cc1)c1cncc(S(=O)(=O)NC)c1` (centres unmarked) [1-(4-Fluorophenyl)-1H-pyrazolo[3,4-c]pyridine-4-carboxylic acid [1-(5-methylsulfamoyl-pyridin-3-yl)-butyl]-amide], for which the IC50 came out at 0.5 nM. With `CS(=O)(=O)c1ccc(CNC(=O)c2cncc3c2cnn3-c2ccc(F)cc2)cc1O` [1-(4-Fluorophenyl)-1H-pyrazolo[3,4-c]pyridine-4-carboxylic acid 3-hydroxy-4-methanesulfonyl-benzylamide], the IC50 was 24 nM. `CCS(=O)(=O)c1ccc(CNC(=O)c2cncc3c2cnn3-c2ccc(F)cc2)cn1` [1-(4-Fluorophenyl)-1H-pyrazolo[3,4-c]pyridine-4-carboxylic acid (6-ethanesulfonyl-pyridin-3-ylmethyl)-amide]: the IC50 worked out at 31 nM. Take `C[C@@H](CO)NS(=O)(=O)c1ccc(CNC(=O)c2cncc3c2cnn3-c2ccc(F)cc2)cc1` [1-(4-Fluorophenyl)-1H-pyrazolo[3,4-c]pyridine-4-carboxylic acid 4-((S)-2-hydroxy-1-methyl-ethylsulfamoyl)-benzylamide]: the IC50 was 2 nM.

`CS(=O)(=O)Nc1ccc(CNC(=O)c2cncc3c2cnn3-c2ccc(F)cc2)cn1` [1-(4-Fluorophenyl)-1H-pyrazolo[3,4-c]pyridine-4-carboxylic acid (6-methanesulfonylamino-pyridin-3-ylmethyl)-amide]: the IC50 amounted to 25 nM. Turning to `O=C(NCc1ccc(S(=O)(=O)N2CCC(O)C2)cc1)c1cncc2c1cnn2-c1ccc(F)cc1` (centres unmarked) [1-(4-Fluorophenyl)-1H-pyrazolo[3,4-c]pyridine-4-carboxylic acid 4-(3-hydroxy-pyrrolidine-1-sulfonyl)-benzylamide], the IC50 turned out to be 0.9 nM.

On to `COCCN(c1ccc(CNC(=O)c2cncc3c2cnn3-c2ccc(Cl)cc2)cn1)S(C)(=O)=O` [1-(4-Chlorophenyl)-1H-pyrazolo[3,4-c]pyridine-4-carboxylic acid {6-[methanesulfonyl-(2-methoxy-ethyl)-amino]-pyridin-3-ylmethyl}-amide], for which the IC50 turned out to be 5 nM. For `COc1cc(CNC(=O)c2cncc3c2cnn3-c2ccc(F)cc2)ccc1S(C)(=O)=O` [1-(4-Fluorophenyl)-1H-pyrazolo[3,4-c]pyridine-4-carboxylic acid 4-methanesulfonyl-3-methoxy-benzylamide], the IC50 stood at 4 nM. In the case of `O=C1CN(S(=O)(=O)c2ccc(CNC(=O)c3cncc4c3cnn4-c3ccc(F)cc3)cc2)CCN1` [1-(4-Fluorophenyl)-1H-pyrazolo[3,4-c]pyridine-4-carboxylic acid 4-(3-oxo-piperazine-1-sulfonyl)-benzylamide], the IC50 is 3 nM. Take `O=C(NCc1ccc(S(=O)(=O)N2CCC(O)CC2)cc1)c1cncc2c1cnn2-c1ccc(F)cc1` [1-(4-Fluorophenyl)-1H-pyrazolo[3,4-c]pyridine-4-carboxylic acid 4-(4-hydroxy-piperidine-1-sulfonyl)-benzylamide]: the IC50 came out at 2 nM.

With `CC(O)CNS(=O)(=O)c1ccc(CNC(=O)c2cncc3c2cnn3-c2ccc(F)cc2)cc1` (centres unmarked) [1-(4-Fluorophenyl)-1H-pyrazolo[3,4-c]pyridine-4-carboxylic acid 4-(2-hydroxy-propylsulfamoyl)-benzylamide], the IC50 was 2 nM. For `C=CC[C@@H](NC(=O)c1cncc2c1cnn2-c1ccc(F)cc1)c1ccnc(S(C)(=O)=O)c1` [1-(4-Fluorophenyl)-1H-pyrazolo[3,4-c]pyridine-4-carboxylic acid [(R)-1-(2-methanesulfonyl-pyridin-4-yl)-but-3-enyl]-amide], the IC50 was determined as 1 nM. Consider `CC(NC(=O)c1cncc2c1cnn2-c1ccc(F)cc1)c1ccc(S(C)(=O)=O)nc1` (centres unmarked) [1-(4-Fluorophenyl)-1H-pyrazolo[3,4-c]pyridine-4-carboxylic acid [1-(6-methanesulfonyl-pyridin-3-yl)-ethyl]-amide], for which the IC50 was 9 nM. On to `COc1cc(S(C)(=O)=O)ccc1CNC(=O)c1cncc2c1cnn2-c1ccc(F)cc1` [1-(4-Fluorophenyl)-1H-pyrazolo[3,4-c]pyridine-4-carboxylic acid 4-methanesulfonyl-2-methoxy-benzylamide], for which the IC50 was found to be 10 nM. Turning to `CCCC(NC(=O)c1cncc2c1cnn2-c1ccc(F)cc1)c1cncc(S(C)(=O)=O)c1` (centres unmarked) [1-(4-Fluorophenyl)-1H-pyrazolo[3,4-c]pyridine-4-carboxylic acid [1-(5-methanesulfonyl-pyridin-3-yl)-butyl]-amide], the 50% inhibitory concentration (IC50) was found to be 0.6 nM. With `CCCC(NC(=O)c1cncc2c1cnn2-c1ccc(F)cc1)c1cncc(S(=O)(=O)CCC(=O)OC)c1` (centres unmarked) [3-[5-(1-{[1-(4-Fluorophenyl)-1H-pyrazolo[3,4-c]pyridine-4-carbonyl]-amino}-butyl)-pyridine-3-sulfonyl]-propionic acid methyl ester], the IC50 was found to be 3 nM. With `O=C(NCc1ccc(S(=O)(=O)N2CCOCC2)cc1)c1cncc2c1cnn2-c1ccc(F)cc1` [1-(4-Fluorophenyl)-1H-pyrazolo[3,4-c]pyridine-4-carboxylic acid 4-(morpholine-4-sulfonyl)-benzylamide], the IC50 turned out to be 2 nM. Under `CC[C@H](NC(=O)c1cncc2c1cnn2-c1ccc(Cl)cc1)c1cncc(S(C)(=O)=O)c1` [1-(4-Chlorophenyl)-1H-pyrazolo[3,4-c]pyridine-4-carboxylic acid [(S)-1-(5-methanesulfonyl-pyridin-3-yl)-propyl]-amide] stands 0.4 nM; under `O=C(NCc1ccc(N2CCCCS2(=O)=O)nc1)c1cncc2c1cnn2-c1ccc(F)cc1` [1-(4-Fluorophenyl)-1H-pyrazolo[3,4-c]pyridine-4-carboxylic acid [6-(1,1-dioxo-1λ6-perhydro-1,2-thiazin-2-yl)-pyridin-3-ylmethyl]-amide], 9 nM. For `C=CC[C@@H](NC(=O)c1cncc2c1cnn2-c1ccc(F)cc1)c1ccnc(Br)c1` [1-(4-Fluorophenyl)-1H-pyrazolo[3,4-c]pyridine-4-carboxylic acid [(R)-1-(2-bromopyridin-4-yl)-but-3-enyl]-amide], the IC50 was 17 nM.

For `C[C@H](CO)NS(=O)(=O)c1ccc(CNC(=O)c2cncc3c2cnn3-c2ccc(F)cc2)cc1` [1-(4-Fluorophenyl)-1H-pyrazolo[3,4-c]pyridine-4-carboxylic acid 4-((R)-2-hydroxy-1-methyl-ethylsulfamoyl)-benzylamide], the IC50 is 2 nM. For `CC(C)NS(=O)(=O)Cc1ccc(CNC(=O)c2cncc3c2cnn3-c2ccc(F)cc2)cc1` [1-(4-Fluorophenyl)-1H-pyrazolo[3,4-c]pyridine-4-carboxylic acid 4-(isopropylsulfamoyl-methyl)-benzylamide] the value was 3 nM. `O=C(NCc1ccc(S(=O)(=O)N2CCC(O)C2)cc1)c1cncc2c1cnn2-c1ccc(Cl)cc1` (centres unmarked) [1-(4-Chlorophenyl)-1H-pyrazolo[3,4-c]pyridine-4-carboxylic acid 4-(3-hydroxy-pyrrolidine-1-sulfonyl)-benzylamide]: the IC50 turned out to be 2 nM.

For the compound `C[C@H](NC(=O)c1cncc2c1cnn2-c1ccc(F)cc1)c1cccc(Br)n1` [1-(4-Fluorophenyl)-1H-pyrazolo[3,4-c]pyridine-4-carboxylic acid [(S)-1-(6-bromopyridin-2-yl)-ethyl]-amide], the IC50 was 5 nM. As for `CCC(NC(=O)c1cncc2c1cnn2-c1ccc(F)cc1)c1ccnc(Br)c1` (centres unmarked) [1-(4-Fluorophenyl)-1H-pyrazolo[3,4-c]pyridine-4-carboxylic acid [1-(2-bromopyridin-4-yl)-propyl]-amide], the IC50 was 0.4 nM. For `O=C(NCc1ccc(CS(=O)(=O)NC2CCCCC2)cc1)c1cncc2c1cnn2-c1ccc(F)cc1` [1-(4-Fluorophenyl)-1H-pyrazolo[3,4-c]pyridine-4-carboxylic acid 4-cyclohexylsulfamoylmethyl-benzylamide] the value was 11 nM; for `O=C(NCc1ccnc(Br)c1)c1cncc2c1cnn2-c1ccc(F)cc1` [1-(4-Fluorophenyl)-1H-pyrazolo[3,4-c]pyridine-4-carboxylic acid (2-bromopyridin-4-ylmethyl)-amide], 2 nM. As to `O=C(NCc1ccc(S(=O)(=O)NC2CCOCC2)nc1)c1cncc2c1cnn2-c1ccc(F)cc1` [1-(4-Fluorophenyl)-1H-pyrazolo[3,4-c]pyridine-4-carboxylic acid [6-(tetrahydropyran-4-ylsulfamoyl)-pyridin-3-ylmethyl]-amide], the IC50 turned out to be 17 nM. For the compound `CC(CO)NS(=O)(=O)c1ccc(CNC(=O)c2cncc3c2cnn3-c2ccc(F)cc2)cc1` (centres unmarked) [1-(4-Fluorophenyl)-1H-pyrazolo[3,4-c]pyridine-4-carboxylic acid 4-(2-hydroxy-1-methyl-ethylsulfamoyl)-benzylamide], the IC50 is 2 nM. Under `C=CC[C@H](NC(=O)c1cncc2c1cnn2-c1ccc(F)cc1)c1ccnc(Br)c1` [1-(4-Fluorophenyl)-1H-pyrazolo[3,4-c]pyridine-4-carboxylic acid [(S)-1-(2-bromopyridin-4-yl)-but-3-enyl]-amide] stands 0.3 nM; under `CS(=O)(=O)c1cccc(CNC(=O)c2cncc3c2cnn3-c2ccc(F)cc2)n1` [1-(4-Fluorophenyl)-1H-pyrazolo[3,4-c]pyridine-4-carboxylic acid (6-methanesulfonyl-pyridin-2-ylmethyl)-amide], 39 nM; under `CN(C)C1CCN(S(=O)(=O)c2ccc(CNC(=O)c3cncc4c3cnn4-c3ccc(F)cc3)cc2)CC1` [1-(4-Fluorophenyl)-1H-pyrazolo[3,4-c]pyridine-4-carboxylic acid 4-(4-dimethylamino-piperidine-1-sulfonyl)-benzylamide], 3 nM.

Source of the values: patent US8063065B2, “Azaindazole compounds as CCR1 receptor antagonists” (Boehringer Ingelheim International GmbH, priority 2008, dated 2011).
